SMILES strings stand for the structures. Where only a bound is given, the exact number is not on record here.

Here are results for 24 compounds from patent US8580811B2 (Ligand Pharmaceuticals Incorporated, priority 2005, dated 2013).

The target in one assay is T1, human AR (Homo sapiens, UniProt P10275).
T1 construct: expressed in transfected cells; host or cells: COS-1 cells
T1 sequence (P10275 1-920): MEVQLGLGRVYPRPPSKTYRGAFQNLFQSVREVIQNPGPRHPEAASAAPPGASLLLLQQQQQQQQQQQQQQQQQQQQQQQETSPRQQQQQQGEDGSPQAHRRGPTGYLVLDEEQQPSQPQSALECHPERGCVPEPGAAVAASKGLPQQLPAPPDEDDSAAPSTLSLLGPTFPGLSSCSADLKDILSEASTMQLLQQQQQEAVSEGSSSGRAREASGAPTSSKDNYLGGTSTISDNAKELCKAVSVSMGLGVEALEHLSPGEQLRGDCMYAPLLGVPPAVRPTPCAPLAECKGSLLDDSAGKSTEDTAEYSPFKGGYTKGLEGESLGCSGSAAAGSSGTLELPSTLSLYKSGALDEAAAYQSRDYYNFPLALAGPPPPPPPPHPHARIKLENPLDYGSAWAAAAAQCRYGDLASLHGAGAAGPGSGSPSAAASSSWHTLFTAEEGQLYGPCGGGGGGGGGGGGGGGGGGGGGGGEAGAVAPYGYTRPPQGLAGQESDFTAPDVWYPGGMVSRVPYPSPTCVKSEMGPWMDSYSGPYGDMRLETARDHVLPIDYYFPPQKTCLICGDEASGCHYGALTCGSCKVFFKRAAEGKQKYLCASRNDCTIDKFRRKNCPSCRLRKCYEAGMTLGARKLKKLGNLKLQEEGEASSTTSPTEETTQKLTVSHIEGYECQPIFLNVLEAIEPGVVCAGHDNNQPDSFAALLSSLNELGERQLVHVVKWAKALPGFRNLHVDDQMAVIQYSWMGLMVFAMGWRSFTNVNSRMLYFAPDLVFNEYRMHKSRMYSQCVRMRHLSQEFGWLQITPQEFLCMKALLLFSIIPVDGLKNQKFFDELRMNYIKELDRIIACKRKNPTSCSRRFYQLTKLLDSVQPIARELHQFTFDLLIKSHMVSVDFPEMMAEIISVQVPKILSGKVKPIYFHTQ
The assay can be described thus: IR Binding Assay: whole cell competitive binding of test compounds against 3H-DHT in COS-1 cells transfected with pRShAR.
Details: not given
The procedure:
For the whole cell binding assay, COS-1 cells in 96-well microtiter plates including DMEM-10% FBS were transfected as described above with the following plasmid DNA: pRShAR (2 ng/well), pRS-β-Gal (50 ng/well) and pGEM (48 ng/well). Six hours after transfection, media was removed, the cells were washed with PBS and fresh media was added. The next day, the media was changed to DMEM-serum free to remove any endogenous ligand that might be complexed with the receptor in the cells.
After 24 hours in serum-free media, either a saturation analysis to determine the Kd for tritiated dihydrotestosterone (^3H-DHT) on human AR or a competitive binding assay to evaluate the ability of test compounds to compete with ^3H-DHT for AR was performed. […] For the competitive binding assay, media including 1 nM ^3H-DHT and test compounds in concentrations ranging from 10^−10 to 10^−6 M were added to the cells. Three replicates were used for each sample. After three hours at 37° C., an aliquot of the total binding media at each concentration of ^3H-DHT was removed to estimate the amount of free ^3H-DHT. The remaining media was removed, the cells were washed three times with PBS to remove unbound ligand, and cells were lysed with a Triton X-100-based buffer. The lysates were assayed for amount of bound ^3H-DHT and β-Gal activity using a scintillation counter or spectrophotometer, respectively.
For the saturation analyses, the difference between the total binding and the nonspecific binding, normalized by the β-Gal rate, was defined as specific binding. The specific binding was evaluated by Scatchard analysis to determine the Kd for ^3H-DHT. See e.g., D. Rodbard, “Mathematics and statistics of ligand assays: an illustrated guide” In: J. Langon and J. J. Clapp, eds., Ligand Assay, Masson Publishing U.S.A., Inc., New York, pp. 45-99, (1981), the disclosure of which is herein incorporated by reference. For the competition studies, the data was plotted as the amount of ^3H-DHT (% of control in the absence of test compound) remaining over the range of the dose-response curve for a given compound. […] The Ki values were determined by application of the Cheng-Prusoff equation to the IC50 values, where:
[formula] After correcting for non-specific binding, IC50 values were determined. […] The IC50 value was determined graphically from a log-logit plot of the data. The Ki values were determined by application of the Cheng-Prusoff equation to the IC50 values, the labeled ligand concentration and the Kd of the labeled ligand. see e.g., Cheng, Y. C. and Prusoff, W. H. Biochem. Pharmacol. 22:3099 (1973).
For orientation: Ki means a dissociation constant, usually derived from enzyme kinetics or from competition with a known ligand. The compound `CC1c2c(ccc3[nH]c(=O)cc(C(F)(F)F)c23)N(CCC(F)(F)F)C1C` (racemic) [Compound 174, (±)-1,2-Dimethyl-9-trifluoromethyl-3-(3,3,3-trifluoropropyl)-1,2,3,6-tetrahydro-pyrrolo[3,2-f]quinolin-7-one] showed an inhibitory constant (Ki) below 5 nM.
Same read-out and setting: under `CC1c2c(ccc3[nH]c(=O)cc(C(F)(F)F)c23)N(CC(F)(F)Cl)C1C` (racemic) [Compound 175, (±)-3-(2-Chloro-2,2-difluoroethyl)-1,2-dimethyl-9-trifluoromethyl-1,2,3,6-tetrahydro-pyrrolo[3,2-f]quinolin-7-one] stands below 5 nM; under `CCC1C(C)c2c(ccc3[nH]c(=O)cc(Cl)c23)N1CC(F)(F)Cl` (racemic) [Compound 176, (±)-9-Chloro-3-(2-Chloro-2,2-difluoroethyl)-2-ethyl-1-methyl-1,2,3,6-tetrahydro-pyrrolo[3,2-f]quinolin-7-one], below 5 nM; under `CCC1C(C)c2c(ccc3[nH]c(=O)cc(Cl)c23)N1CC(F)(F)C(F)(F)F` (racemic) [Compound 177, (±)-9-Chloro-2-ethyl-1-methyl-3-(2,2,3,3,3-pentafluoropropyl)-1,2,3,6-tetrahydro-pyrrolo[3,2-f]quinolin-7-one], below 5 nM.
In turn, `CCC1C(C)c2c(ccc3[nH]c(=O)cc(C(F)(F)F)c23)N1CC(F)(F)Cl` (racemic) [Compound 178, (±)-3-(2-Chloro-2,2-difluoroethyl)-2-ethyl-1-methyl-9-trifluoromethyl-1,2,3,6-tetrahydro-pyrrolo[3,2-f]quinolin-7-one] gave a Ki below 5 nM.
With `CCC1C(C)c2c(ccc3[nH]c(=O)cc(C(F)(F)F)c23)N1CC(F)(F)C(F)(F)F` (racemic) [Compound 179, (±)-2-Ethyl-1-methyl-3-(2,2,3,3,3-pentafluoropropyl)-9-trifluoromethyl-1,2,3,6-tetrahydro-pyrrolo[3,2-f]quinolin-7-one], the inhibition constant Ki is below 5 nM.
The same measure, in the same setting: under `CCC1C(C)c2c(ccc3[nH]c(=O)cc(C(F)(F)F)c23)N1CCC(F)(F)F` (racemic) [Compound 180, (±)-2-Ethyl-1-methyl-9-trifluoromethyl-3-(3,3,3-trifluoropropyl)-1,2,3,6-tetrahydro-pyrrolo[3,2-f]quinolin-7-one] stands below 5 nM; under `CCC1C(C)c2c(ccc3[nH]c(=O)cc(C(F)(F)F)c23)N1CCCC(F)(F)F` (racemic) [Compound 181, (±)-2-Ethyl-1-methyl-3-(4,4,4-trifluorobutyl)-9-trifluoromethyl-1,2,3,6-tetrahydro-pyrrolo[3,2-f]quinolin-7-one], 5 to 10 nM; under `CC1c2c(ccc3[nH]c(=O)cc(C(F)(F)F)c23)N(CCCC(F)(F)F)C1C` (racemic) [Compound 182, (±)-1,2-Dimethyl-3-(4,4,4-trifluorobutyl)-9-trifluoromethyl-1,2,3,6-tetrahydro-pyrrolo[3,2-f]quinolin-7-one], below 5 nM.
In turn, `Cc1c(C)n(CC(O)C(F)(F)F)c2ccc3[nH]c(=O)cc(Cl)c3c12` (racemic) [Compound 231, (±)-9-Chloro-1,2-dimethyl-3-(3,3,3-trifluoro-2-hydroxy-propyl)-3,6-dihydro-pyrrolo[3,2-f]-quinolin-7-one] gave a Ki below 5 nM.
`CCc1c(C)c2c3c(Cl)cc(=O)[nH]c3ccc2n1CC(O)C(F)(F)F` (racemic) [Compound 232, (±)-9-Chloro-2-ethyl-1-methyl-3-(3,3,3-trifluoro-2-hydroxy-propyl)-3,6-dihydro-pyrrolo[3,2-f]quinolin-7-one] displayed an inhibitory constant (Ki) below 5 nM.
With `Cc1c(C(F)(F)F)n(CC(O)C(F)(F)F)c2ccc3[nH]c(=O)cc(Cl)c3c12` (racemic) [Compound 233, (±)-9-Chloro-1-methyl-3-(3,3,3-trifluoro-2-hydroxypropyl)-2-trifluoromethyl-3,6-dihydropyrrolo[3,2-f]quinolin-7-one], the inhibitory constant (Ki) is below 5 nM.
As for `Cc1c(C)n(CC(O)C(F)(F)F)c2ccc3[nH]c(=O)cc(C(F)(F)F)c3c12` (racemic) [Compound 243, (±)-1,2-Dimethyl-3-(3,3,3-trifluoro-2-hydroxy-propyl)-9-trifluoromethyl-3,6-dihydro-pyrrolo[3,2-f]-quinolin-7-one], the Ki was below 5 nM.
In turn, `O=c1cc(C(F)(F)F)c2c(ccc3c2c2c(n3CC(O)C(F)(F)F)CCC2)[nH]1` (racemic) [Compound 246, (±)-3-(3,3,3-Trifluoro-2-hydroxy-propyl)-9-trifluoromethyl-1,2-trimethylene-3,6-dihydro-pyrrolo[3,2-f]quinolin-7-one] had an inhibitory constant (Ki) of 5 to 10 nM.
The same measure, in the same setting: under `CCc1c(C)c2c3c(C(F)(F)F)cc(=O)[nH]c3ccc2n1CC(O)C(F)(F)F` (racemic) [Compound 247, (±)-2-Ethyl-1-methyl-3-(3,3,3-Trifluoro-2-hydroxy-propyl)-9-trifluoromethyl-3,6-dihydro-pyrrolo[3,2-f]quinolin-7-one] stands below 5 nM; under `Cc1[nH]c2ccc3[nH]c(=O)cc(Cl)c3c2c1C` [Compound 105, 9-Chloro-1,2-dimethyl-3,6-dihydro-pyrrolo[3,2-f]quinolin-7-one], below 5 nM.
On to `CCc1[nH]c2ccc3[nH]c(=O)cc(Cl)c3c2c1C` [Compound 106, 9-Chloro-2-ethyl-1-methyl-3,6-dihydro-pyrrolo[3,2-f]quinolin-7-one], for which the Ki is 5 to 10 nM.
As for `O=c1cc(Cl)c2c(ccc3[nH]c4c(c32)CCC4)[nH]1` [Compound 107, 9-Chloro-1,2-trimethylene-3,6-dihydro-pyrrolo[3,2-f]quinolin-7-one], the Ki is above 10 nM.
On the same count and under the same terms, under `Cc1c(C(F)(F)F)[nH]c2ccc3[nH]c(=O)cc(Cl)c3c12` [Compound 108, 9-Chloro-1-methyl-2-trifluoromethyl-3,6-dihydro-pyrrolo[3,2-f]quinolin-7-one] stands below 5 nM; under `CCc1c(C)[nH]c2ccc3[nH]c(=O)cc(Cl)c3c12` [Compound 109, 9-Chloro-2-methyl-1-ethyl-3,6-dihydro-pyrrolo[3,2-f]quinolin-7-one], above 10 nM.
As for `Cc1c(-c2ccccc2)[nH]c2ccc3[nH]c(=O)cc(Cl)c3c12` [Compound 110, 9-Chloro-1-methyl-2-phenyl-3,6-dihydro-pyrrolo[3,2-f]quinolin-7-one], the Ki is below 5 nM.
Consider `Cc1cc2c(ccc3[nH]c(=O)cc(Cl)c32)[nH]1` [Compound 112, 9-Chloro-2-methyl-3,6-dihydro-pyrrolo[3,2-f]quinolin-7-one], for which the Ki was above 10 nM.

Still in this assay, the particulars now being: competition with 1 nM 3H-DHT, transfected COS-1 cells, 3 h at 37° C., Cheng-Prusoff from IC50.
`Cc1c(C)n(CC(O)C(F)(F)F)c2ccc3[nH]c(=O)cc(Cl)c3c12` (racemic) [Compound 279, rac-9-Chloro-1,2-dimethyl-3-(3,3,3-trifluoro-2-hydroxy-propyl)-3,6-dihydro-pyrrolo[3,2-f]-quinolin-7-one] gave a Ki below 5 nM.

The same assay, now with this note: competition with 1 nM 3H-DHT, transfected COS-1 cells, 3 h at 37° C., Cheng-Prusoff from IC50; read-out: Ki.
Regarding `CCOC(=O)c1[nH]c2ccc3[nH]c(=O)cc(Cl)c3c2c1C` [Compound 111, 9-Chloro-1-methyl-7-oxo-6,7-dihydro-3H-pyrrolo[3,2-f]quinoline-2-carboxylic acid ethyl ester], the Ki is above 10 nM.
